# Results taken from PMC6130518, “Investigation of the effective components of the flowers of Trollius chinensis from the perspectives of intestinal bacterial transformation and intestinal absorption” (Pharmaceutical Biology, 2017).
# System: Caco-2 cells
# Assay: MTT assay, non-toxic dose range
# Format: cell-based, human
# Conditions: 4 h, positive control
# Procedure: The Caco-2 cells were seeded into 96-well plates as they were in logarithmic growth phase. Each well was added with 100 μL of the cell suspension (8.0 × 10^3 cells/mL) and incubated in 5% CO2 and constant temperature (37 °C) and humidity in the incubator. […] The cells were incubated under the same conditions for 4 h; then, 100 μL of 3-(4,5-dimethylthiazolzyl)-2,5-diphenyl tetrazolium bromide (MTT, Amresco, Radnor, PA) solution at the concentration of 0.5 mg/mL took the place of HBSS. After the cells were incubated under the same conditions for 4 h, the supernatant was replaced by 150 μL of dimethyl sulphoxide (DMSO, Sigma Chemical Co., Deisenhofen, Germany); then, the cells were shaken for 10 min. The absorption of the samples was measured on a microplate reader (BioTek Instruments, Inc., Winooski, VT) at the wavelength of 570 nm.
# The following formula was used to calculate the cell survival rate=A/A0×100%, wherein, A represented the average absorbance value of the experiment groups, and A0 represented the average absorbance value of the control group.
smiles,measurement,setting,value
CC(=O)O[C@H]1C(=O)[C@@]2(C)[C@H]([C@H](OC(=O)c3ccccc3)[C@]3(O)C[C@H](OC(=O)[C@H](O)[C@@H](NC(=O)c4ccccc4)c4ccccc4)C(C)=C1C3(C)C)[C@]1(OC(C)=O)CO[C@@H]1C[C@@H]2O [paclitaxel],survival rate of the Caco-2 cells,0.02 mg/L,67.3%
same,survival rate of the Caco-2 cells,0.04 mg/L,45.5%
same,survival rate of the Caco-2 cells,0.08 mg/L,37.4%
